Numbered stars: 1 amine (or outer) side, 2 acyl side, 3 side chain; on linkers, the order of the positions; unused ones are H or OH. Peptide text beside a SMILES is read from it. * marks the point of attachment. pNA = O=[N+]([O-])c1ccc(N*)cc1; Suc = O=C(CCC(=O)[*:2])[*:1]
Experiments:
[1] = molecular target: T1, Peptidyl-prolyl cis-trans isomerase A (Homo sapiens, UniProt P62937); assay: Inhibition of fluorescent cyclosporin A binding to human CypA by TR-FRET assay
[2] = Intrinsic clearance in human liver microsomes; assay type: ADME; details: read-out: CLH
[3] = Apparent permeability across basolateral to apical side in human Caco2 cells; assay type: ADME, cell-based; details: Caco-2
[4] = Distribution coefficient, logD of the compound; assay type: physicochemical; details: octanol/water
[5] = Unbound fraction in human plasma; assay type: ADME, cell-free
[6] = Apparent permeability across apical to basolateral side in human Caco2 cells; assay type: ADME, cell-based; details: Caco-2
[7] = Aqueous solubility of the compound; assay type: physicochemical; details: buffer
[8] = molecular target: T1, Peptidyl-prolyl cis-trans isomerase A; assay: Binding affinity to CypA (unknown origin) by fluorescence titration method

T1 sequence (P62937 whole entry): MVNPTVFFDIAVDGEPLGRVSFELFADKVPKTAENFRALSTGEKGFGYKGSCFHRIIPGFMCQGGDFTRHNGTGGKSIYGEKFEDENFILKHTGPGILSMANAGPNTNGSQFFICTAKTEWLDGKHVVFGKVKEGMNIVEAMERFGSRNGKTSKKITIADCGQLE

Structure (SMILES) | Kd [1] | also measured
C[C@@]1(NC(=O)C2CCC2)COCCCCOC[C@@H](C(=O)O)NC(=O)[C@@H]2CCCN2C(=O)CNC1=O | 139 µM | –
C[C@@]1(NCC2CCCC2)COCCCCOC[C@@H](C(=O)O)NC(=O)[C@@H]2CCCN2C(=O)CNC1=O | > 600 µM | –
C[C@@]1(NCCc2ccccc2)COCCCCOC[C@@H](C(=O)O)NC(=O)[C@@H]2CCCN2C(=O)CNC1=O.Cl | 10.5 µM | microsomal CLint [2]: < 3 µL/min/mg; Papp B→A [3]: 0.17 ×10⁻⁶ cm/s; logD [4]: -1.8; fraction unbound [5]: 1; Papp A→B [6]: 0.1 ×10⁻⁶ cm/s; solubility [7]: > 1000 µM
C[C@@]1(NCC2CCCCC2)COCCCCOC[C@@H](C(=O)O)NC(=O)[C@@H]2CCCN2C(=O)CNC1=O | 32 µM | –
C[C@@]1(NCCCc2ccccc2)COCCCCOC[C@@H](C(=O)O)NC(=O)[C@@H]2CCCN2C(=O)CNC1=O | > 600 µM | –
C[C@@]1(NC(=O)c2cc(Cl)cc(Cl)c2)COCCCCOC[C@@H](C(=O)O)NC(=O)[C@@H]2CCCN2C(=O)CNC1=O | > 600 µM | –
C[C@@]1(NCC2CCCCCCC2)COCCCCOC[C@@H](C(=O)O)NC(=O)[C@@H]2CCCN2C(=O)CNC1=O | 5.4 µM | –
C[C@@]1(NCC2CCOCC2)COCCCCOC[C@@H](C(=O)O)NC(=O)[C@@H]2CCCN2C(=O)CNC1=O | > 600 µM | –
C[C@@]1(N)COCCCCOC[C@@H](C(=O)O)NC(=O)[C@@H]2CCCN2C(=O)CNC1=O | 127 µM | –
CCCCCCC(=O)N[C@]1(C)COCCCCOC[C@@H](C(=O)O)NC(=O)[C@@H]2CCCN2C(=O)CNC1=O | > 600 µM | –
CC(=O)N[C@]1(C)COCCCCOC[C@@H](C(=O)O)NC(=O)[C@@H]2CCCN2C(=O)CNC1=O | > 600 µM | –
C[C@@]1(NCc2ccccc2)COCCCCOC[C@@H](C(=O)O)NC(=O)[C@@H]2CCCN2C(=O)CNC1=O | > 600 µM | –
C[C@H](NC(=O)CCC(=O)O)C(=O)NCC(=O)N1CCC[C@H]1C(=O)N[C@@H](Cc1ccccc1)C(=O)Nc1ccc([N+](=O)[O-])cc1 (Suc-AGPF-pNA) | – | Kd [8]: 135 µM

From ChEMBL document CHEMBL3862006, “Design and synthesis of peptide-based macrocyclic cyclophilin inhibitors” (Bioorg Med Chem Lett, 2016)
